From patent publication US6130238A, “3-(cyclohexanoheteroarylidenyl)-2-indolinone protein tyrosine kinase inhibitors” (Sugen, Inc., priority 1998, dated 2000)
pIC50: −log10 of the molar value.

Assays:
FLK-1R = molecular target: T1, FLK-1R (Mus musculus, UniProt P35918); experiment: FLK-1 receptor kinase activity, cellular ELISA (NIH3T3 C7#3 cells, VEGF stimulated); format: cell-based
T1 construct: expressed in transfected cells; host or cells: NIH3T3 C7#3 cells

EGFR = molecular target: T2, EGFR (Homo sapiens, UniProt P00533); experiment: EGF Receptor ELISA (NIH 3T3/C7 cells); format: cell-based
T2 construct: expressed in transfected cells; host or cells: NIH 3T3/C7 cell line
T2 sequence (P00533 25-1210): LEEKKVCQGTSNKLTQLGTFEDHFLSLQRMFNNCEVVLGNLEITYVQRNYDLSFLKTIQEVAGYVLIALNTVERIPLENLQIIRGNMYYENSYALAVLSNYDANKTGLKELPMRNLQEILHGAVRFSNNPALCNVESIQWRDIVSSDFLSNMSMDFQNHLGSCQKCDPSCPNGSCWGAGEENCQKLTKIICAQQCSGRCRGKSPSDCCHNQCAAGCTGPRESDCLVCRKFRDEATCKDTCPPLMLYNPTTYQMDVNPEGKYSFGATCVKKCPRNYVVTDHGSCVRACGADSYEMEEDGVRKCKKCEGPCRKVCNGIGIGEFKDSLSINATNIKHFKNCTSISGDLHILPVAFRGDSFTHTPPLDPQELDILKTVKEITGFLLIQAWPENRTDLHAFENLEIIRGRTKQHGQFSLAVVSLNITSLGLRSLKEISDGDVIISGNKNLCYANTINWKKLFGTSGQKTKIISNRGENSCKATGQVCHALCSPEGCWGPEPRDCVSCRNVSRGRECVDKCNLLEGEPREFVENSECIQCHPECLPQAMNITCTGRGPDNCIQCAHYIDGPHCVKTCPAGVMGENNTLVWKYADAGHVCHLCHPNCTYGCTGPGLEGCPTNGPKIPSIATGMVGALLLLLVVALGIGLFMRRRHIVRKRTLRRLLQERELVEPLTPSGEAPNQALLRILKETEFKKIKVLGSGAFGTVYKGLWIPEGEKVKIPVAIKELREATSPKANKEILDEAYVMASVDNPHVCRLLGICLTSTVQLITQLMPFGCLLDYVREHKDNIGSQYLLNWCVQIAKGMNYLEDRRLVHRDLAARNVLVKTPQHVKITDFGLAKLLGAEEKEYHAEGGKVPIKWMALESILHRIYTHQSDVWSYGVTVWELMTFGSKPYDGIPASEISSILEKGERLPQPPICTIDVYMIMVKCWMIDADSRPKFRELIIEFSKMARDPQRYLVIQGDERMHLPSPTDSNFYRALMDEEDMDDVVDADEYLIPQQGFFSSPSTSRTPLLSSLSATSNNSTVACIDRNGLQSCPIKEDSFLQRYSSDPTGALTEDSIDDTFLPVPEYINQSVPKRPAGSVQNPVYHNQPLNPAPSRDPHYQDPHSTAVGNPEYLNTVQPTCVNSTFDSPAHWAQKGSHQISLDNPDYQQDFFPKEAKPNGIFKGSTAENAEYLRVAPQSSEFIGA
Protocol: (§1) IC50 refers to the amount (in micromoles, μM) of compound required to achieve 50% inhibition of the activity of the particular kinase being tested as compared to the activity of an untreated control.
(§2) The cellular/catalytic assays described herein are performed in an ELISA format. The general procedure is a follows: a compound is introduced to cells expressing the test kinase, either naturally or recombinantly, for some period of time after which, if the test kinase is a receptor, a ligand known to activate the receptor's activity is added. The cells are lysed and the lysate is transferred to the wells of an ELISA plate previously coated with a specific antibody recognizing the substrate of the enzymatic phosphorylation reaction. Non-substrate components of the cell lysate are washed away and the amount of phosphorylation on the substrate is detected with an antibody specifically recognizing phosphotyrosine compared with control cells that were not contacted with a test compound.
EGF Receptor kinase activity in cells genetically engineered to express human EGF-R can be measured as described below:
1. […]
12. The maximal phosphotyrosine signal is determined by subtracting the value of the negative controls from the positive controls. The percent inhibition of phosphotyrosine content for extract-containing wells is then calculated, after subtraction of the negative controls.

PDGFR = experiment: PDGF-R ELISA (U1242 cells); format: cell-based
Protocol: as §1, §2
All cell culture media, glutamine, and fetal bovine serum can be purchased from Gibco Life Technologies (Grand Island, NY) unless otherwise specified. All cells are grown in a humid atmosphere of 90-95% air and 5-10% CO2 at 37° C. All cell lines are routinely subcultured twice a week and are negative for mycoplasma as determined by the Mycotect method (Gibco). […]

LCK = molecular target: T3, LCK (Homo sapiens, UniProt P06239); experiment: Biochemical lck Assay--ELISA
T3 construct: made in house; host or cells: Schizosaccharomyces pombe SP200, pRSP expression plasmid
T3 sequence (P06239 whole entry, species assumed): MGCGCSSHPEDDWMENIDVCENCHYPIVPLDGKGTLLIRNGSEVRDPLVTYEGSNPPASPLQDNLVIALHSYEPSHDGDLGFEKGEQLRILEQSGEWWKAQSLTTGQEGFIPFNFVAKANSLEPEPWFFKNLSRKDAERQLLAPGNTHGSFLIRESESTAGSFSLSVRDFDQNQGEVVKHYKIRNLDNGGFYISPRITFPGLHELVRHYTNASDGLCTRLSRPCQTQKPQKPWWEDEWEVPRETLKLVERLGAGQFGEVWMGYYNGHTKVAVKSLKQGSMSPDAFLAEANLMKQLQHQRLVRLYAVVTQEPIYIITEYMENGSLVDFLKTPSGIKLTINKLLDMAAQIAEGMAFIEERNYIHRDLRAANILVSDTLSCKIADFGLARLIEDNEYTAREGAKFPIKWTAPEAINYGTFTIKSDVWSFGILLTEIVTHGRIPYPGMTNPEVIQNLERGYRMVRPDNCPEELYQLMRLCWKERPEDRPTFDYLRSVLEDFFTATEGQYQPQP
From the text: as §1
h. Biochemical lck Assay--ELISA
This assay is used to determine lck protein kinase activities measuring phosphorylation of GST-.zeta. as the readout.
a. Yeast transformed with lck. Schizosaccharomyces Pombe is used to express recombinant Lck (Superti-Furga, et al., EMBO J, 12:2625-2634; Superti-Furga, et al., Nature Biotech., 14:600-605). S. Pombe strain SP200 (h-s leul.32 ura4 ade210) is grown as described and transformations with pRSP expression plasmids are done by the lithium acetate method (Superti-Furga, supra). Cells are grown in the presence of 1 μM thiamine […].
a. Preparation of Lck coated ELISA plate.
(§3) c. Kinase assay procedure.
2. Add 0.08 ml Kinase Reaction Mixture per well (containing 10 μl of 10× Kinase Buffer and 2 μg GST-.zeta. per well diluted with water).
(§4) 3. Add 10 μl of compound diluted in water containing 10% DMSO and pre-incubate for 15 minutes at room temperature.
4. Start kinase reaction by adding 10 μl/well of 0.1 mM ATP in water (10 μM ATP final).
5. Shake ELISA plate for 60 min. at room temperature.
14. Develop with Turbo TMB.

FAK = FAK (Homo sapiens, UniProt Q05397); experiment: FAK kinase inhibition; format: biochemical
FAK, sequence (Q05397 whole entry, species assumed): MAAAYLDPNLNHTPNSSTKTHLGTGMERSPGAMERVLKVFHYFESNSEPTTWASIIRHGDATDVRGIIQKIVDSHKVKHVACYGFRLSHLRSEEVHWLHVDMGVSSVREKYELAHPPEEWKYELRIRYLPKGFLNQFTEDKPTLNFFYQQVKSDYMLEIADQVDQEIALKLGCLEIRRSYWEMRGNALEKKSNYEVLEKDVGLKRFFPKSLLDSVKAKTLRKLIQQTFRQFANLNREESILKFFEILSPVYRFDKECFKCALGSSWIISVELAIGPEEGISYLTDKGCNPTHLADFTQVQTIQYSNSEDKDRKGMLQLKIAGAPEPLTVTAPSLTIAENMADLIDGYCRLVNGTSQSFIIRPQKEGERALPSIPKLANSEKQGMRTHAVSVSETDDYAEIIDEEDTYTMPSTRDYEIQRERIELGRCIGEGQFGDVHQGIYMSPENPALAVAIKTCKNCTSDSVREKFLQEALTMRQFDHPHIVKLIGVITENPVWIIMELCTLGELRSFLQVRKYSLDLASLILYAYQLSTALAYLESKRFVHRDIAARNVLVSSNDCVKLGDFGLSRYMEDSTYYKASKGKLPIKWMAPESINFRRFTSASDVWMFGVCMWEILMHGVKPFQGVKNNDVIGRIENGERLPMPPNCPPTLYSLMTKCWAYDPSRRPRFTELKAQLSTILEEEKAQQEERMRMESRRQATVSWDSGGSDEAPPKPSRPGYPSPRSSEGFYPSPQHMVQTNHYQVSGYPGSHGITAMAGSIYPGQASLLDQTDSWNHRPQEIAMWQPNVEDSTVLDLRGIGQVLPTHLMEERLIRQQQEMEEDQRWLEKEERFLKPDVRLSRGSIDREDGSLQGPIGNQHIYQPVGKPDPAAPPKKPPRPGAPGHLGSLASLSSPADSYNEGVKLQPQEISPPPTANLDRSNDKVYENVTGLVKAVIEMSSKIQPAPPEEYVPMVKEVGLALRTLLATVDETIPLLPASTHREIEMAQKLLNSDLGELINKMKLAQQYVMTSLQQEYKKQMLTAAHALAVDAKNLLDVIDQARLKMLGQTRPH
From the text: as §1

SRC = molecular target: T4, SRC (Gallus gallus, UniProt P00523); experiment: Biochemical src assay--ELISA
T4 construct: made in house; host or cells: Schizosaccharomyces pombe SP200, pRSP expression plasmid; yeast from Courtneidge Laboratory (Sugen)
From the text: as §1
g. Biochemical src assay--ELISA
This assay is used to determine src protein kinase activity measuring phosphorylation of a biotinylated peptide as the readout.
h. Anti-src (327) mab: Schizosaccharomyces Pombe is used to express recombinant Src (Superti-Furga, et al., EMBO J., 12:2625-2634; Superti-Furga, et al., […]., 14:600-605). S. Pombe strain SP200 (h-s leul.32 ura4 ade210) is grown as described and transformations are pRSP expression plasmids are done by the lithium acetate method (Superti-Furga, supra). Cells are grown in the presence of 1 μM thiamine to repress expression from the nmtl promoter or in the absence of thiamine to induce expression.
a. Preparation of src coated ELISA plate.
as §3
2. Add 0.08 ml Kinase Reaction Mixture per well (containing 10 μl of 10× Kinase Buffer and 10 μM (final concentration) biotin-EEEYEEYEEEYEEEYEEEY per well diluted in water.
as §4
4. Start kinase reaction by adding 10 μl/well of 0.05 mM ATP in water (5 μM ATP final).
5. Shake ELISA plate for 15 min. at room temperature.
10. […]

HUV-EC-C cells [1] = experiment: HUV-EC-C Assay, aFGF (3H-thymidine incorporation); format: cell-based, human; conditions: read-out: HUV-EC-C (ATCC) aFGF
From the text: as §1
(§5) The cellular/biologic assays described herein measure the amount of DNA made in response to activation of a test kinase, which is a general measure of a proliferative response. The general procedure for this assay is as follows: a compound is introduced to cells expressing the test kinase, either naturally or recombinantly, for some period of time after which, if the test kinase is a receptor, a ligand known to activate the receptor's activity is added. After incubation at least overnight, a DNA labeling reagent such as Bromodeoxy-uridine (BrdU) or 3H-thymidine is added. The amount of labeled DNA is detected with either an anti-BrdU antibody or by measuring radioactivity and is compared to control cells not contacted with a test compound.
(§6) The following protocol may also be used to measure a compound's activity against PDGF-R, FGF-R, VEGF, aFGF or Flk-1/KDR, all of which are naturally expressed by HUV-EC cells.
1. […]

HUV-EC-C cells [2] = experiment: HUV-EC-C Assay, VEGF (3H-thymidine incorporation); format: cell-based, human; conditions: read-out: HUV-EC-C (ATCC) VEGF
From the text: as §1, §5, §6
1. […]

T1 sequence (P35918 20-1345): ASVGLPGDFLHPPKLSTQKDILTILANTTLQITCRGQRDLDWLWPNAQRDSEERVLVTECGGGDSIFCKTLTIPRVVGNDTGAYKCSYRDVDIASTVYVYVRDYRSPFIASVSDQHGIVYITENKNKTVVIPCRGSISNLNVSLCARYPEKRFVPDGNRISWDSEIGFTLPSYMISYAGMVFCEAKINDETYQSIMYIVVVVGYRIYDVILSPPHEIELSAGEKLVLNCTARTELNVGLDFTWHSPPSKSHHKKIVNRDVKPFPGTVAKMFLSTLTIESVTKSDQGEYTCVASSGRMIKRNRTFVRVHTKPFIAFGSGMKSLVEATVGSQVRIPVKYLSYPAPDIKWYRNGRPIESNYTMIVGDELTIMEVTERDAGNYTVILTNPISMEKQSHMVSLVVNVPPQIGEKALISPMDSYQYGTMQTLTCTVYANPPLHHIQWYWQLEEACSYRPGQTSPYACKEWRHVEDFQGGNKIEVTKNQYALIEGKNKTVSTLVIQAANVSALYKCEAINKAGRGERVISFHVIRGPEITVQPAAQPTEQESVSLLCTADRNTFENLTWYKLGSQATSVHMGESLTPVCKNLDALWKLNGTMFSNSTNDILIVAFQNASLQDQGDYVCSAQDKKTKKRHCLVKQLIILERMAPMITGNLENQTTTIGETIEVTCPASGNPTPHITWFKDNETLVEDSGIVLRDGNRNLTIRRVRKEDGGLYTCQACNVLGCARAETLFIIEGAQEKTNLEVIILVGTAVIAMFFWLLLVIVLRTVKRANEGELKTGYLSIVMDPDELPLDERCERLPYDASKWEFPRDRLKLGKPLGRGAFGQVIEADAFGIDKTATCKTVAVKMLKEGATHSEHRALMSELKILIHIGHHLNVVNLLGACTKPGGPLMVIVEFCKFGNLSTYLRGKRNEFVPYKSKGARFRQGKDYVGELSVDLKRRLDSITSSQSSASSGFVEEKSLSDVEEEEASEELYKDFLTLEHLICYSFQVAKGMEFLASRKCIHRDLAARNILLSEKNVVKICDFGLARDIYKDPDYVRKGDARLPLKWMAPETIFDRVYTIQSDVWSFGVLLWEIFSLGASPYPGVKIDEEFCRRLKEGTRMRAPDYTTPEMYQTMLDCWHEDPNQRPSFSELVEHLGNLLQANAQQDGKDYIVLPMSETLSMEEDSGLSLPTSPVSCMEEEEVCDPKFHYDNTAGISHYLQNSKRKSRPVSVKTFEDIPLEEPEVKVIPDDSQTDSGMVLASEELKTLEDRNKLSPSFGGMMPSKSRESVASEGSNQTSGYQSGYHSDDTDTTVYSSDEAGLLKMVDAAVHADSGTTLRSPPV

SMILES	pIC50 (FLK-1R)	pIC50 (EGFR)	pIC50 (PDGFR)	pIC50 (LCK)	pIC50 (FAK)	pIC50 (SRC)	pIC50 (HUV-EC-C cells [1]; Homo sapiens)	pIC50 (HUV-EC-C cells [1])	pIC50 (HUV-EC-C cells [2]; Homo sapiens)	pIC50 (HUV-EC-C cells [2])
CN(C)S(=O)(=O)c1ccc2c(c1)C(=CC1=CC3=C(CCCC3)C1)C(=O)N2 [3-(4,5,6,7-tetrahydroinden-2-methyldenyl)-5-[N,N-dimethylaminosulfonyl]2-indolinone]	< 4.00	< 4.00	< 4.00	6.30	< 5.00	7.00	–	–	–	–
NS(=O)(=O)c1ccc2c(c1)C(=CC1=CC3=C(CCCC3)C1)C(=O)N2 [3-(4,5,6,7-tetrahydroinden-2-methylidenyl)-5-[aminosulfonyl]-2-indolinone]	< 4.00	< 4.00	6.00	6.15	< 5.00	6.10	5.62	5.48	6.19	5.97
